# In PubChem BioAssay AID248 (DTP/NCI, 2004):
# Several values for one entry are separate records, joined by “and”; a condition that tells them apart may be missing. Identical values can stand only once. Inconclusive results and toxic doses are left out.
# Test system: L1210 leukemia ip in BDF1 mice, survival T/C
# Assay: NCI In Vivo Anticancer Drug Screen. Data for tumor model L1210 Leukemia (intraperitoneal) in B6D2F1 (BDF1) mice
# Details: endpoint: mean survival time, higher = longer survival
# How it was run: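 Each compound was tested against a transplantable tumor grown in mice. The endpoint was survival, with treated animals benchmarked against vehicle controls as a simple ratio.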
# [1] = dose: 0.5 mg/kg/injection, schedule: Q01DX009 (ip), vehicle: saline
# [2] = dose: 1.0 mg/kg/injection, schedule: Q01DX009 (ip), vehicle: saline
# [3] = dose: 50.0 mg/kg/injection, schedule: Q01DX009 (ip), vehicle: saline
# [4] = dose: 50.0 mg/kg/injection, schedule: Q04DX003 (ip), vehicle: saline
# [5] = dose: 400.0 mg/kg/injection, schedule: Q04DX003 (ip), vehicle: Klucel (hydroxypropylcellulose) (HPC)
# [6] = dose: 100.0 mg/kg/injection, schedule: Q04DX003 (ip), vehicle: saline
# [7] = dose: 100.0 mg/kg/injection, schedule: Q04DX002 (ip), vehicle: Klucel (hydroxypropylcellulose) (HPC)
# [8] = dose: 200.0 mg/kg/injection, schedule: Q04DX002 (ip), vehicle: Klucel (hydroxypropylcellulose) (HPC)
# [9] = dose: 400.0 mg/kg/injection, schedule: Q04DX002 (ip), vehicle: Klucel (hydroxypropylcellulose) (HPC)
# [10] = dose: 100.0 mg/kg/injection, schedule: Q01DX009 (ip), vehicle: Klucel (hydroxypropylcellulose) (HPC)
# [11] = dose: 200.0 mg/kg/injection, schedule: Q01DX009 (ip), vehicle: Klucel (hydroxypropylcellulose) (HPC)
# [12] = dose: 400.0 mg/kg/injection, schedule: Q01DX009 (ip), vehicle: Klucel (hydroxypropylcellulose) (HPC)
smiles,measurement,setting,value
CCOC1=C(N2CC2)C(=O)C(OCC)=C(N2CC2)C1=O,T/C,"dose: 0.1 mg/kg/injection, schedule: Q01DX009 (ip), vehicle: saline",109 % of control
same,T/C,"dose: 0.1 mg/kg/injection, schedule: Q01DX Z (ip), vehicle: carboxymethylcellulose (CMC)",105 % of control
same,T/C,"dose: 0.25 mg/kg/injection, schedule: Q01DX001 (ip), vehicle: saline",105 % of control
same,T/C,"dose: 0.25 mg/kg/injection, schedule: Q01DX009 (ip), vehicle: saline",107 % of control
same,T/C,"dose: 0.25 mg/kg/injection, schedule: Q01DX Z (ip), vehicle: saline",118 % of control
same,T/C,"dose: 0.3 mg/kg/injection, schedule: Q01DX Z (ip), vehicle: carboxymethylcellulose (CMC)",105 % of control
same,T/C,"dose: 0.31 mg/kg/injection, schedule: Q01DX Z (ip), vehicle: saline",110 % of control
same,T/C,"dose: 0.47 mg/kg/injection, schedule: Q01DX Z (ip), vehicle: saline",121 % of control
same,T/C,"dose: 0.5 mg/kg/injection, schedule: Q01DX001 (ip), vehicle: saline",103 % of control
same,T/C,[1],109 % of control
same,T/C,"dose: 0.5 mg/kg/injection, schedule: Q01DX Z (ip), vehicle: saline",118 % of control
same,T/C,"dose: 0.7 mg/kg/injection, schedule: Q01DX Z (ip), vehicle: saline",121 % of control
same,T/C,"dose: 1.0 mg/kg/injection, schedule: Q01DX001 (ip), vehicle: saline",107 % of control
same,T/C,[2],121 % of control
same,T/C,"dose: 1.0 mg/kg/injection, schedule: Q01DX Z (ip), vehicle: saline",157 % of control
same,T/C,"dose: 2.0 mg/kg/injection, schedule: Q01DX001 (ip), vehicle: saline",118 % of control
same,T/C,"dose: 4.0 mg/kg/injection, schedule: Q01DX Z (ip), vehicle: saline",94 % of control
same,T/C,"dose: 5.0 mg/kg/injection, schedule: Q01DX001 (ip), vehicle: saline",158 % of control
same,T/C,"dose: 5.0 mg/kg/injection, schedule: Q01DX Z (ip), vehicle: methylcellulose (MC)",102 % of control
same,T/C,"dose: 10.0 mg/kg/injection, schedule: Q01DX001 (ip), vehicle: saline",103 % of control
CC(=O)Nc1ccccc1C(C)=O,T/C,"dose: 100.0 mg/kg/injection, schedule: Q04DX003 (ip), vehicle: saline with Tween-80",92 % of control
same,T/C,"dose: 200.0 mg/kg/injection, schedule: Q04DX003 (ip), vehicle: saline with Tween-80",93 % of control
same,T/C,"dose: 400.0 mg/kg/injection, schedule: Q04DX003 (ip), vehicle: saline with Tween-80",93 % of control
c1coc(-c2cnc3ccccc3n2)c1,T/C,"dose: 75.0 mg/kg/injection, schedule: Q01DX001 (ip), vehicle: carboxymethylcellulose (CMC)",109 % of control
same,T/C,"dose: 150.0 mg/kg/injection, schedule: Q01DX001 (ip), vehicle: carboxymethylcellulose (CMC)",91 % of control
c1ncc(OCCN2CC2)nc1OCCN1CC1,T/C,"dose: 0.12 mg/kg/injection, schedule: Q01DX009 (ip), vehicle: carboxymethylcellulose (CMC)",102 % of control
same,T/C,"dose: 0.25 mg/kg/injection, schedule: Q01DX009 (ip), vehicle: carboxymethylcellulose (CMC)",108 % of control
same,T/C,"dose: 0.5 mg/kg/injection, schedule: Q01DX009 (ip), vehicle: carboxymethylcellulose (CMC)",102 % of control
same,T/C,[1],97 % of control
same,T/C,"dose: 1.0 mg/kg/injection, schedule: Q01DX009 (ip), vehicle: carboxymethylcellulose (CMC)",95 % of control
same,T/C,[2],97 % of control
same,T/C,"dose: 3.0 mg/kg/injection, schedule: Q01DX009 (ip), vehicle: saline",156 % of control
same,T/C,"dose: 11.1 mg/kg/injection, schedule: Q01DX001 (ip), vehicle: carboxymethylcellulose (CMC)",124 % of control
same,T/C,"dose: 11.1 mg/kg/injection, schedule: Q01DX001 (ip), vehicle: saline",120 % of control
CC1(C)CCN1Cc1ccccc1,T/C,"dose: 12.0 mg/kg/injection, schedule: Q01DX001 (ip), vehicle: saline",98 % of control
same,T/C,"dose: 12.0 mg/kg/injection, schedule: Q04DX003 (ip), vehicle: saline",95 % of control
same,T/C,"dose: 12.5 mg/kg/injection, schedule: Q01DX009 (ip), vehicle: saline",95 % of control
same,T/C,"dose: 25.0 mg/kg/injection, schedule: Q01DX001 (ip), vehicle: saline",100 % of control
same,T/C,"dose: 25.0 mg/kg/injection, schedule: Q01DX009 (ip), vehicle: saline",101 % of control
same,T/C,"dose: 25.0 mg/kg/injection, schedule: Q04DX003 (ip), vehicle: saline",101 % of control
same,T/C,"dose: 50.0 mg/kg/injection, schedule: Q01DX001 (ip), vehicle: saline",96 % of control
same,T/C,[3],123 % of control
same,T/C,[4],96 % of control
c1ccc2c(OCC3CO3)cccc2c1 (stereo not given),T/C,"dose: 50.0 mg/kg/injection, schedule: Q01DX001 (ip), vehicle: other",94 % of control
same,T/C,"dose: 100.0 mg/kg/injection, schedule: Q01DX001 (ip), vehicle: other",94 % of control
same,T/C,"dose: 200.0 mg/kg/injection, schedule: Q01DX001 (ip), vehicle: other",94 % of control
same,T/C,"dose: 400.0 mg/kg/injection, schedule: Q01DX001 (ip), vehicle: other",111 % of control
Cn1ncc2c(N)nc(-c3ccccc3)nc21,T/C,"dose: 100.0 mg/kg/injection, schedule: Q04DX003 (ip), vehicle: other",97 % of control
O=C(O)CCSc1nc2ccccc2s1,T/C,"dose: 75.0 mg/kg/injection, schedule: Q01DX009 (ip), vehicle: Klucel (hydroxypropylcellulose) (HPC)",101 % of control
same,T/C,"dose: 150.0 mg/kg/injection, schedule: Q01DX009 (ip), vehicle: Klucel (hydroxypropylcellulose) (HPC)",88 % of control
same,T/C,"dose: 300.0 mg/kg/injection, schedule: Q01DX009 (ip), vehicle: Klucel (hydroxypropylcellulose) (HPC)",95 % of control
same,T/C,[5],94 % of control
O=C(O)c1ccc(P(=O)(O)O)cc1[N+](=O)[O-],T/C,[4],95 % of control
same,T/C,[6],100 % of control
COc1cc(C=Nc2cc(Cl)c(Cl)c(Cl)c2)ccc1N(CCCl)CCCl,T/C,"dose: 15.0 mg/kg/injection, schedule: Q01DX001 (ip), vehicle: carboxymethylcellulose (CMC)",123 % of control
same,T/C,"dose: 30.0 mg/kg/injection, schedule: Q01DX001 (ip), vehicle: carboxymethylcellulose (CMC)",121 % of control
O=C1CC(C(Cl)(Cl)Cl)O1 (stereo not given),T/C,[7],89 % of control
same,T/C,[8],92 % of control
same,T/C,[9],106 % of control
COc1cc(C)ccc1OC(=O)Nc1ccccc1,T/C,[7],109 % of control
same,T/C,[8],113 % of control
same,T/C,[9],106 % of control
C=C(C)[C@@H]1CC[C@]2(C(=O)OC)CC[C@]3(C)[C@H](CC[C@@H]4[C@@]5(C)CC[C@H](O)C(C)(C)[C@@H]5CC[C@]43C)[C@@H]12,T/C,"dose: 100.0 mg/kg/injection, schedule: Q04DX003 (ip), vehicle: alcohol",103 % of control
same,T/C,"dose: 200.0 mg/kg/injection, schedule: Q04DX003 (ip), vehicle: alcohol",100 % of control
same,T/C,"dose: 400.0 mg/kg/injection, schedule: Q04DX003 (ip), vehicle: alcohol",91 % of control
O=C(O)c1c(Cl)c([N+](=O)[O-])cc([N+](=O)[O-])c1Cl,T/C,[3],92 % of control
same,T/C,"dose: 100.0 mg/kg/injection, schedule: Q01DX009 (ip), vehicle: saline",92 % of control
same,T/C,[6],103 % of control
same,T/C,"dose: 200.0 mg/kg/injection, schedule: Q01DX009 (ip), vehicle: saline",92 % of control
same,T/C,"dose: 200.0 mg/kg/injection, schedule: Q04DX003 (ip), vehicle: saline",99 % of control
c1ccc(P(CCP(CCP(c2ccccc2)c2ccccc2)CCP(c2ccccc2)c2ccccc2)c2ccccc2)cc1,T/C,[10],89 % of control
same,T/C,[11],89 % of control
same,T/C,[12],88 % of control
CCOC(=O)/C=C(\c1ccccc1)c1ccc([N+](=O)[O-])cc1,T/C,"dose: 100.0 mg/kg/injection, schedule: Q01DX001 (ip), vehicle: Klucel (hydroxypropylcellulose) (HPC)",94 % of control
same,T/C,[10],105 % of control and 90 % of control
same,T/C,[7],93 % of control and 98 % of control
same,T/C,"dose: 100.0 mg/kg/injection, schedule: Q04DX003 (ip), vehicle: Klucel (hydroxypropylcellulose) (HPC)",107 % of control
same,T/C,"dose: 200.0 mg/kg/injection, schedule: Q01DX001 (ip), vehicle: Klucel (hydroxypropylcellulose) (HPC)",98 % of control
same,T/C,[11],103 % of control and 90 % of control
same,T/C,[8],100 % of control and 106 % of control
same,T/C,"dose: 200.0 mg/kg/injection, schedule: Q04DX003 (ip), vehicle: Klucel (hydroxypropylcellulose) (HPC)",102 % of control
same,T/C,"dose: 400.0 mg/kg/injection, schedule: Q01DX001 (ip), vehicle: Klucel (hydroxypropylcellulose) (HPC)",102 % of control
same,T/C,[12],106 % of control and 110 % of control
same,T/C,[9],98 % of control and 100 % of control
same,T/C,[5],98 % of control
